Values joined by “and” are separate entries in the source; they are usually repeats but may differ in a detail not shown here. Equal values may be shown once. Read-outs that look alike come from different tables or passages of the source.
Tests used:
[1] = test system: BGLT3 RNA in CD34+ cells; test: RT-qPCR of BGLT3 in CD34+ cells; type: cell-based, human; details: for BGLT3 expression in CD34+ cells treated with hydroxyurea: relative to DMSO = 1, replicate values; for BGLT3 expression: primary human CD34+ cells
Procedure: (§1) HUDEP-2 cells and HiDEP-1 cells were grown in Stemline II Hematopoietic Stem Cell Expansion Medium (Sigma) supplemented with 50 ng/mL recombinant stem cell factor (SCF; R&D systems), 3 IU/mL recombinant erythropoietin (EPO; Kyowa Kirin), 1 μM dexamethasone (Dex; Sigma), and 1 μg/mL doxycycline (Sigma). A total of 1 × 10^5 human CD34^+ progenitor cells derived from bone marrow or peripheral blood (Lonza) were cultured on 35-mm dishes (BD Falcon) in StemSpan SFEMII medium with 50 ng/mL SCF, 5 IU/mL EPO, and 10 ng /mL interleukin 3 (IL-3; R&D systems). The medium was changed on day 4 to SCF, EPO, and 1 μM Dex, and the cells were transferred to 60-mm dishes (BD Falcon). Seven days after the onset of differentiation, cells were counted and 1 × 10^6 cells were re-plated on 100-mm dishes (BD Falcon) with SCF, EPO, and Dex. The rat myoblast cell line H9c2, HEK293T, and PLAT-E cells were maintained in Dulbecco’s modified Eagle’s medium (Thermo Fisher Scientific) supplemented with 10% heat-inactivated fetal bovine serum (FBS) and penicillin/streptomycin. All cells were cultured at 37 °C under 5% CO2.
(§2) Total cellular RNA was prepared using the Tissue Total RNA Mini Kit (FAVORGEN), and cDNA was synthesized using ReverTra Ace Master Mix (TOYOBO). Expression of target genes was analyzed using THUNDERBIRD SYBR qPCR Mix (TOYOBO) on a CFX Connect Real Time System (Bio-Rad). The qPCR data were acquired on CFX Maestro (Bio-Rad). Primers are listed in Supplementary Table 10. GAPDH was used as a reference. Primers were purchased from INTEGRATED DNA TECHNOLOGIES or FASMAC.

[2] = test system: β- and γ-globin mRNAs in CD34+-derived cells; test: RT-qPCR of β- and γ-globin in CD34+-derived cells; type: cell-based, human
Procedure: as §1, §2

[3] = biological target: T1, DNMT3b/3L (Homo sapiens, UniProt Q9UBC3); test: Radioisotope-based methyltransferase assay (selectivity); type: biochemical
T1 construct: purchased Reaction Biology

[4] = biological target: T2, SMYD2 (Homo sapiens, UniProt Q9NRG4); test: as above; type: biochemical
T2 construct: purchased Reaction Biology

[5] = biological target: T3, G9a SET domain (Homo sapiens, UniProt Q96KQ7); test: Surface plasmon resonance (SPR); type: binding
T3 construct: the human G9a SET domain (residues 913–1193) was synthesized using the E. coli cell-free synthesis method; made in house; host or cells: E. coli cell-free synthesis
T3 sequence (Q96KQ7 913-1193): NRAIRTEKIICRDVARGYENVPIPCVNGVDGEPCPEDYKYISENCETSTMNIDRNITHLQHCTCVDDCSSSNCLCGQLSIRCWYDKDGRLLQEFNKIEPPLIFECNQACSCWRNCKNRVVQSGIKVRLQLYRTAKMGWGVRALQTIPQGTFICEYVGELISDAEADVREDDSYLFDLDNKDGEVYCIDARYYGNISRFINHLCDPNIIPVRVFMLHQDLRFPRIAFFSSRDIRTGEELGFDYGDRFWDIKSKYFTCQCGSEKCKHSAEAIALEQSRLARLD
Procedure: For crystal structure analysis, the human G9a SET domain (residues 913–1193) was synthesized using the E. coli cell-free synthesis method[48],[49] and purified in the same manner as described previously, except that the final size-exclusion column chromatography using HiLoad Superdex 200 16/60 (GE Healthcare) was equilibrated with 20 mM Tris-HCl buffer (pH 8.0) containing 400 mM NaCl. […] Crystals were grown by the hanging drop method at 293 K, where the sample solution was mixed with an equal volume of a reservoir solution containing 100 mM Bis-Tris propane (pH 7.4), 200 mM sodium formate, 10% ethylene glycol, and 25% PEG 3350. The harvested crystals were coated with Paratone-N oil (Hampton Research) before being flash-cooled in liquid nitrogen. Diffraction data were collected at the X06DA beamline of the Swiss Light Source, Paul Scherrer Institut (Villigen, Switzerland), and were processed and scaled with XDS[51], AIMLESS[52], and other CCP4 programs. The structure of G9a with UNC0638 (PDB ID: 3RJW)[23] was used for the initial phase determination by the molecular replacement method with Phaser[53]. The topology and parameter file for the inhibitor was generated with eLBOW[54] from SMILES strings. Structure refinement was carried out with Phenix[55] and manual model building using COOT[56]. Crystallographic statistics are summarized in Supplementary Table 3.
SPR was performed using a Biacore T200 (Cytiva) and Series S Sensorchip SA (Cytiva, BR100531) at the temperature of 25 °C. A solution of PBS, 0.005% TWEEN20 (Sigma, P9416), 0.5 mM TCEP (Nacalai Tesque, 06342-21), and 2% DMSO (Sigma, 276855) was filtered with a 0.22-μm filter and used as the running buffer. Kinetic measurements were carried out at a flow rate of 30 μL/min, and the association and dissociation phases were monitored for 120 s and 120–300 s, respectively. The G9a SET domain was biotinylated by using NHS-PEG4-Biotin (Thermo, 39259), and captured to flow cells 2, 3, and 4 with immobilization levels of ~2300 RU. No specific treatment was applied to the reference surface (flow cell 1). To prevent oxidation of the immobilized protein, a solution containing 1 μM ZnCl2 and 5 mM TCEP was injected at a flow rate of 10 μL/min for 60 s before each set of kinetic measurements. The extra wash command was executed after each measurement cycle with 50% DMSO aqueous solution. To correct for bulk responses, solvent correction was performed once after all kinetics runs by using running buffer containing 1–3% DMSO. The sensorgrams obtained from the three flow cells were analyzed individually by Biacore T200 Evaluation Software (Cytiva). The dissociation constant (KD) and binding kinetic parameters were calculated by a curve fit to a built-in 1:1 binding model.

[6] = CD34+-derived cells, day 10, 10 μM
[7] = single run, read-out: Dissociation constant (Kd)

T2 sequence (Q9NRG4 whole entry): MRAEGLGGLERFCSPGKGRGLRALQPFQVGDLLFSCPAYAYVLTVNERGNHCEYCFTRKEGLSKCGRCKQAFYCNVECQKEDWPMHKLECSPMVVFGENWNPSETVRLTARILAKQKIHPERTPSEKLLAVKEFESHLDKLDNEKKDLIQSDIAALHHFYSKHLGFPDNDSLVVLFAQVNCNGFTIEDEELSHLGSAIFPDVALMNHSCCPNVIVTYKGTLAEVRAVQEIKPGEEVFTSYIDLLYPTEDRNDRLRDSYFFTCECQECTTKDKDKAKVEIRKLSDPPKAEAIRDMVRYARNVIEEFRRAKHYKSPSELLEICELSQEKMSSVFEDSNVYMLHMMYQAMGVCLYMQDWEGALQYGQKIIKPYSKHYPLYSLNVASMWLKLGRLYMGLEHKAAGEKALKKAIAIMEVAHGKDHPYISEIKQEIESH

| SMILES | BGLT3 expression in CD34+ cells treated with hydroxyurea ([1]; DAY7, 10 μM) | BGLT3 expression in CD34+ cells treated with hydroxyurea ([1]; DAY7, 50 μM) | BGLT3 expression in CD34+ cells treated with hydroxyurea ([1]; DAY9, 10 μM) | BGLT3 expression in CD34+ cells treated with hydroxyurea ([1]; DAY9, 50 μM) | BGLT3 expression [1] | Relative expression of β-globin mRNA [2, 6] | Relative expression of γ-globin mRNA [2, 6] | IC50 ([3]; 1 μM SAM) [nM] | IC50 ([3]; RK-701 in duplicate) [nM] | γ-globin mRNA expression ([2]; primary human CD34+ hematopoietic cells) | IC50 ([4]; SMYD2, 1 μM SAM) [nM] | IC50 ([4]; SMYD2, RK-701 in duplicate) [nM] | binding to G9a by SPR [5] | Kd ([5]; absence of SAM, read-out: Kd) [nM] | Kd ([5]; earlier SPR conditions, peer review file, read-out: Kd before re-analysis) [nM] | Kd [5, 7] | Kd ([5]; mean of three kinetics runs, read-out: KD) [nM] |
| --- | --- | --- | --- | --- | --- | --- | --- | --- | --- | --- | --- | --- | --- | --- | --- | --- | --- |
| NC(=O)NO [Hydroxyurea, hydroxyurea] | 1.048 and 1.203 and 1.026 | 1.743 and 1.82 and 2.054 | 1.52 and 1.518 and 1.0769 | 2.568 and 2.893 and 2.233 | promoted BGLT3 expression | 1.124 and 0.7862 and 0.5724 | 2.644 and 2.524 and 1.672 | – | – | – | – | – | – | – | – | – | – |
| Cc1c(C(=O)NC(CCC2CC2)C(=O)Nc2ccc(C#N)cc2)[nH]c2c1C(=O)CC(C)(C)C2 (stereo not drawn) [RK-701] | – | – | – | – | induced BGLT3 expression | – | – | > 100000 | > 100000 | significantly increased | > 100000 | > 100000 | reversible binding | 750 | 2400 | 743 nM and 731 nM and 761 nM | – |
| Cc1c(C(=O)N[C@H](CCC2CC2)C(=O)Nc2ccc(C#N)cc2)[nH]c2c1C(=O)CC(C)(C)C2 [RK-0133114] | – | – | – | – | – | – | – | – | – | – | – | – | failed to detect the binding | – | – | > 20000 nM | > 20000 |
| Nc1ncnc2c1ncn2[C@@H]1O[C@H](CSCC[C@H](N)C(=O)O)[C@@H](O)[C@H]1O [SAH, S-(5'-Adenosyl)-L-homocysteine, reference compound] | – | – | – | – | – | – | – | 50 | 54.2 | – | 1900 | 1910 | – | – | – | – | – |

Reference: article PMC9837035 (Nature Communications, 2023)
